According to ChEMBL document CHEMBL2177101, “Role of the CAI-1 fatty acid tail in the Vibrio cholerae quorum sensing response” (J Med Chem, 2012):

What was measured:
[1] = Agonist activity at CqsS in Vibrio cholerae MM920 harboring deltacqsA, deltaluxQ and pBB1 after 4 hrs by bioluminescence assay; type: functional
[2] = system: Vibrio cholerae; assay: Agonist activity at CqsS in Vibrio cholerae MM920 harboring deltacqsA, deltaluxQ and pBB1 at 50000 nM after 4 hrs by bioluminescence assay relative to CAI-1; type: functional

| Compound | EC50 [1] [nM] | Emax [2] [%] |
| --- | --- | --- |
| CCCCCCCCNC(=O)[C@@H](O)CC | 1500 | – |
| CCCCCCCCCC(=O)[C@@H](N)CC | 28 | – |
| CCCCCCCCOC(=O)[C@@H](N)CC | 30 | – |
| CCCCCCCCOC(=O)[C@H](N)CC | 33 | – |
| CCCCC/C=C/COC(=O)[C@@H](O)CC | 39 | – |
| CCCCc1ccc(COC(=O)[C@@H](O)CC)cc1 | 117 | – |
| CCCCC[C@@H]1C[C@H]1COC(=O)C(O)CC (mixture of isomers) | 1200 | – |
| CCCC/C=C\CCOC(=O)C(O)CC (racemic) | 780 | – |
| CCCCCc1ccc(COC(=O)C(O)CC)cc1 (racemic) | 680 | – |
| CCCCCc1cccc(COC(=O)C(O)CC)c1 (racemic) | 1600 | – |
| CCc1ccc(CCCOC(=O)C(O)CC)cc1 (racemic) | 190 | – |
| CCc1cccc(CCCOC(=O)C(O)CC)c1 (racemic) | 9400 | – |
| CCc1ccccc1CCCOC(=O)C(O)CC (racemic) | > 50000 | 28 |
| CCCCOC(=O)C(O)CC (racemic) | > 50000 | 23 |
| CCCCCCOC(=O)C(O)CC (racemic) | 1000 | – |
| CCCCCCCOC(=O)C(O)CC (racemic) | 350 | – |
| CCCCCCCCCOC(=O)C(O)CC (racemic) | 73 | – |

| Compound | EC50 [1] [nM] | Emax [2] [%] |
| --- | --- | --- |
| CCCCCCCCCCOC(=O)C(O)CC (racemic) | 720 | – |
| CCCCCOCCOC(=O)C(O)CC (racemic) | 4400 | – |
| CCOCCOCCOC(=O)C(O)CC (racemic) | > 50000 | 31 |
| CCCCCCOCCOC(=O)C(O)CC (racemic) | 2400 | – |
| CCC(O)C(=O)OCCOCCOCCOC (racemic) | 10000 | – |
| CCCCC/C=C/COC(=O)C(O)CC (racemic) | 54 | – |
| CCCCC/C=C\COC(=O)C(O)CC (racemic) | 710 | – |
| CCCCCC#CCOC(=O)C(O)CC (racemic) | 550 | – |
| CCCC/C=C/CCOC(=O)C(O)CC (racemic) | 770 | – |
| CCCCC#CCCOC(=O)C(O)CC (racemic) | 2000 | – |
| CCC/C=C/CCCOC(=O)C(O)CC (racemic) | 270 | – |
| CCC/C=C\CCCOC(=O)C(O)CC (racemic) | 1800 | – |
| CC/C=C/CCCCOC(=O)C(O)CC (racemic) | 830 | – |
| CC/C=C\CCCCOC(=O)C(O)CC (racemic) | 570 | – |
| CCCCc1ccc(COC(=O)C(O)CC)cc1 (racemic) | 190 | – |
| CCCCc1cccc(COC(=O)C(O)CC)c1 (racemic) | 3700 | – |
| CCCCc1ccccc1COC(=O)C(O)CC (racemic) | > 50000 | 11 |
